Numbering of substitutions follows the chain as printed. Where two headings read alike, the source gives them in different places.
Legend:
hGAT1 = molecular target: T1, hGAT1 (Homo sapiens, UniProt P30531); assay: [3H]GABA uptake inhibition at hGAT1 stably expressed in CHO Flp-In cells; format: cell-based; conditions: 30 nM [3H]GABA, 3 min, CHO Flp-In cells stably expressing hGAT1; read-out: IC50 hGAT1
T1 construct: expressed in transfected cells
Description: CHO Flp-In and tsA201 cells were cultured at 37 °C in a humidified atmosphere of […] and 5% CO2. As previously described[38],[63], CHO Flp-In cells stably expressing the hGATs were cultured in Ham’s F12 Nutrient Mix supplemented with 10% FBS, 1% P/S and plasmocin (5 µg/mL) under the selection pressure of hygromycin B (200 µg/mL). DMEM with GlutaMAX-I supplemented with 10% FBS and 1% P/S was used as growth medium for the tsA201 cells, which were transfected with DNA constructs using PolyFect according to the manufacturer’s specifications (Qiagen, West Sussex, UK), but with half of the recommended reagent volumes.
Uptake assays were performed in PDL-coated white 96-well polystyrene cell culture microplates (PerkinElmer, Boston, MA, USA) as previously described[38],[63]. […] Assay buffer was HBSS supplemented with 20 mM HEPES, 1 mM CaCl2 and 1 mM MgCl2, pH 7.4. […] After termination, scintillation liquid (MicroScint-20, PerkinElmer) was added and the radioactivity measured in a TopCount NXT Microplate Scintillation Counter (PerkinElmer).
Data analysis and statistical evaluation were performed in GraphPad Prism 7.02 (GraphPad Software, San Diego, CA, USA). Concentration-uptake inhibition curves, generated from the radioligand-based uptake assays, were fitted by non-linear regression, using the equation for sigmoidal concentration–response with variable slope: Y = Bottom + (Top–Bottom)/(1 + 10^((logIC50 − X) × HillSlope)), where Y is the response, X is the logarithm of the concentration, Top and Bottom are the plateaus in same units as Y, logIC50 is the concentration giving a response halfway between Bottom and Top, and the HillSlope is the steepness of the curve. For the substrate concentration–response curves generated from the FMP assay, the same equation was used but with logEC50 instead for logIC50. Unless otherwise stated, data are presented as means ± S.E.M. of at least three independent pooled experiments performed in triplicates.

hGAT3 L314Q = molecular target: T2, hGAT3 L314Q (Homo sapiens, UniProt P48066, L314Q); assay: [3H]GABA uptake inhibition at hGAT3 L314Q transiently expressed in tsA201 cells; format: cell-based; conditions: 30 nM [3H]GABA, transient expression
T2 construct: expressed in transfected cells; host or cells: tsA201 cells, transient (PolyFect), pcDNA5/FRT vector
T2 sequence (P48066 1-632 L314Q): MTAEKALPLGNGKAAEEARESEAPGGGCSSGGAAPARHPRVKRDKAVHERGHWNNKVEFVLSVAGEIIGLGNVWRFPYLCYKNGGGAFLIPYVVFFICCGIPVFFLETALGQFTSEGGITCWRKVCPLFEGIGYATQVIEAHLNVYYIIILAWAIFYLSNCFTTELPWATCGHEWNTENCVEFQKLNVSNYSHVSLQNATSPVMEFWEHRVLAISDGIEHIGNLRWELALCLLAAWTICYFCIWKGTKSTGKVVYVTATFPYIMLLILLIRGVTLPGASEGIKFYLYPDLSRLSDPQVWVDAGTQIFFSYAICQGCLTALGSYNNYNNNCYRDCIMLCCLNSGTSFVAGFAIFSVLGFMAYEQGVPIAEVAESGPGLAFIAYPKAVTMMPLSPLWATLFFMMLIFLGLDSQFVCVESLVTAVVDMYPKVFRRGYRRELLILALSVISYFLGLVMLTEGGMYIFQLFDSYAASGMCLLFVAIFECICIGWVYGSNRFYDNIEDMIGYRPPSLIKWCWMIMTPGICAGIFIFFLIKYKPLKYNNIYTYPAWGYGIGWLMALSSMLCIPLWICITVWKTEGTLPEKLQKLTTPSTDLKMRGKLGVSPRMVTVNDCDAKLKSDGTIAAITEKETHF

hBGT1 E52Y = molecular target: T3, hBGT1 E52Y (Homo sapiens, UniProt P48065, E52Y); assay: cell-based; conditions: 30 nM [3H]GABA, tsA201 cells, transient expression
T3 sequence (P48065 1-614 E52Y): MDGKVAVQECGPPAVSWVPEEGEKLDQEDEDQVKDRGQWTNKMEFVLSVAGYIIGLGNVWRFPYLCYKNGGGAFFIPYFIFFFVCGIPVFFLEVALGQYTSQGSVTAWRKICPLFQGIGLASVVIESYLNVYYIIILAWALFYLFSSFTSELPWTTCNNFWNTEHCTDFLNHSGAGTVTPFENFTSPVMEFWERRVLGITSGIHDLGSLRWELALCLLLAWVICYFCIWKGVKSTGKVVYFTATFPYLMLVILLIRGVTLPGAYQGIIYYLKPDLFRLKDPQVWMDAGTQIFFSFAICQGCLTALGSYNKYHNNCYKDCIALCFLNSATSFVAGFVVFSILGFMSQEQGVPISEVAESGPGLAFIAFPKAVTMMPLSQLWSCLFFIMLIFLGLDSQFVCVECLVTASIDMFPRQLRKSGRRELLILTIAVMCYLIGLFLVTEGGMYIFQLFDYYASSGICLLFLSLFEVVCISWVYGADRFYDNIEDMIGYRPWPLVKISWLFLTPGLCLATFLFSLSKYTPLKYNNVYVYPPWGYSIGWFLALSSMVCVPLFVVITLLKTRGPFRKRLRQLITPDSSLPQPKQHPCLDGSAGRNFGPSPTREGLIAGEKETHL

hBGT1 wt = molecular target: T4, hBGT1 wt (Homo sapiens, UniProt P48065); assay: [3H]GABA uptake inhibition at wt hBGT1 transiently expressed in tsA201 cells; format: cell-based; conditions: 30 nM [3H]GABA, tsA201 cells transiently expressing wt hBGT1
T4 construct: expressed in transfected cells; host or cells: tsA201 cells, transient (PolyFect), pcDNA5/FRT vector
T4 sequence (P48065 1-614): T3 sequence (P48065 1-614 E52Y) with Y52E

[1] = read-out: pIC50 ± S.E.M. BGT1 wt (converted)
[2] = read-out: pIC50 ± S.E.M. GAT3 L314Q (converted)

T1 sequence (P30531 whole entry): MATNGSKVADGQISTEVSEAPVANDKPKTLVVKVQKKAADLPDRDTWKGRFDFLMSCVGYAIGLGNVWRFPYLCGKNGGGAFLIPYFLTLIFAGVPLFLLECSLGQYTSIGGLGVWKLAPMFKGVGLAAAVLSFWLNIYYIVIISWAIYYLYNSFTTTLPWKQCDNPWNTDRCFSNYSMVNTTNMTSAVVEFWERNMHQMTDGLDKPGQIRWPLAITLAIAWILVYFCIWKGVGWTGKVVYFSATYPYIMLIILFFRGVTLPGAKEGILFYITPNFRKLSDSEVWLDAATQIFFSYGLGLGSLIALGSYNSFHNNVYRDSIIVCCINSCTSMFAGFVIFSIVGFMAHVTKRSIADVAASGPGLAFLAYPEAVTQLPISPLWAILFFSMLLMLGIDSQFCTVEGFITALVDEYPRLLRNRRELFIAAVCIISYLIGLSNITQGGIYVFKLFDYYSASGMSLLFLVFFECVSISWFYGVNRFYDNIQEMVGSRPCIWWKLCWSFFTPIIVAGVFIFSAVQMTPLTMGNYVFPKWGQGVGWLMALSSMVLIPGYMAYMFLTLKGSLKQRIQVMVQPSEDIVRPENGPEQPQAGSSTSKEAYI

In the case of `C[C@@H]1N=C(N)NC[C@@H]1C(=O)O` (single isomer, unassigned) [l-15a], the IC50 (hGAT1) is reported as over 1000 µM, the IC50 (hGAT3 L314Q; read-out: IC50 GAT3 L314Q) is reported as over 1000 µM and the IC50 (hBGT1 E52Y; IC50 BGT1 E52Y) is reported as over 1000 µM. For the same compound, the IC50 (hBGT1 wt; [1]) was 20.9 µM.
`NC1=NCC(C(=O)O)CN1` (stereo not shown) [ATPCA, 2-amino-1,4,5,6-tetrahydropyrimidine-5-carboxylic acid, reference compound] was tested, and the IC50 (hGAT1) was over 1000 µM, the IC50 (hGAT3 L314Q; read-out: IC50 GAT3 L314Q) was 66 µM and the IC50 (hGAT3 L314Q; [2]) was 58.9 µM. For the same compound, the IC50 (hBGT1 E52Y; IC50 BGT1 E52Y) was 5.8 µM, the IC50 (hBGT1 wt; read-out: IC50 BGT1 wt) was 11 µM and the IC50 (hBGT1 wt; [1]) was 10.5 µM.
For `NC1=NCC(C(=O)O)CC1` (stereo not shown) [compound 2, 6-amino-2,3,4,5-tetrahydropyridine-3-carboxylic acid, reference compound], the IC50 (hGAT1) was 216 µM, the IC50 (hGAT3 L314Q; read-out: IC50 GAT3 L314Q) was 695 µM and the IC50 (hBGT1 E52Y; IC50 BGT1 E52Y) was 44 µM. It also gave an IC50 (hBGT1 E52Y; pIC50 ± S.E.M. BGT1 E52Y) of 37.2 µM, an IC50 (hBGT1 wt; read-out: IC50 BGT1 wt) of 52 µM and an IC50 (hBGT1 wt; [1]) of 51.3 µM.
In the case of `CCN1CC(C(=O)O)CN=C1N.Cl` (stereo not shown) [compound 3], the IC50 (hGAT1) is reported as over 1000 µM, the IC50 (hGAT3 L314Q; read-out: IC50 GAT3 L314Q) is reported as over 1000 µM and the IC50 (hBGT1 E52Y; IC50 BGT1 E52Y) is reported as 152 µM. For the same compound, the IC50 (hBGT1 wt; read-out: IC50 BGT1 wt) was 406 µM and the IC50 (hBGT1 wt; [1]) was 398 µM.
`Cl.NC1=NCC(C(=O)O)CN1Cc1ccccc1` (stereo not shown) [compound 4] gave an IC50 (hGAT1) of over 1000 µM, an IC50 (hGAT3 L314Q; read-out: IC50 GAT3 L314Q) of 500 µM and an IC50 (hGAT3 L314Q; [2]) of 490 µM. The IC50 (hBGT1 E52Y; IC50 BGT1 E52Y) was 54 µM, the IC50 (hBGT1 wt; read-out: IC50 BGT1 wt) was 354 µM and the IC50 (hBGT1 wt; [1]) was 324 µM.
Work on `NC1=NC=C(C(=O)O)CN1.O=C(O)C(F)(F)F` [compound 11] yielded an IC50 (hGAT1) of over 1000 µM, an IC50 (hGAT3 L314Q; read-out: IC50 GAT3 L314Q) of over 1000 µM and an IC50 (hBGT1 E52Y; IC50 BGT1 E52Y) of over 1000 µM. It also gave an IC50 (hBGT1 wt; read-out: IC50 BGT1 wt) of 220 µM.

Reference: article PMC7400577 (Scientific Reports, 2020)
